From patent publication US20030224978A1, “Compounds and methods for modulating apoptosis” (McGill University, priority 1996, published 2003)
Positions of bridges follow the written chain, without caps; N, C: chain ends. Residues, ends and D or L forms follow the SMILES beside them.

Tests used:
N-cadherin = biological target: T1, N-cadherin (Gallus gallus, UniProt P10288); test: Neurite outgrowth of mouse cerebellar neurons on 3T3 cells expressing N-cadherin (Example 2); format: cell-based
T1 construct: expressed in transfected cells; host or cells: 3T3 fibroblasts
T1 sequence (P10288 165-912): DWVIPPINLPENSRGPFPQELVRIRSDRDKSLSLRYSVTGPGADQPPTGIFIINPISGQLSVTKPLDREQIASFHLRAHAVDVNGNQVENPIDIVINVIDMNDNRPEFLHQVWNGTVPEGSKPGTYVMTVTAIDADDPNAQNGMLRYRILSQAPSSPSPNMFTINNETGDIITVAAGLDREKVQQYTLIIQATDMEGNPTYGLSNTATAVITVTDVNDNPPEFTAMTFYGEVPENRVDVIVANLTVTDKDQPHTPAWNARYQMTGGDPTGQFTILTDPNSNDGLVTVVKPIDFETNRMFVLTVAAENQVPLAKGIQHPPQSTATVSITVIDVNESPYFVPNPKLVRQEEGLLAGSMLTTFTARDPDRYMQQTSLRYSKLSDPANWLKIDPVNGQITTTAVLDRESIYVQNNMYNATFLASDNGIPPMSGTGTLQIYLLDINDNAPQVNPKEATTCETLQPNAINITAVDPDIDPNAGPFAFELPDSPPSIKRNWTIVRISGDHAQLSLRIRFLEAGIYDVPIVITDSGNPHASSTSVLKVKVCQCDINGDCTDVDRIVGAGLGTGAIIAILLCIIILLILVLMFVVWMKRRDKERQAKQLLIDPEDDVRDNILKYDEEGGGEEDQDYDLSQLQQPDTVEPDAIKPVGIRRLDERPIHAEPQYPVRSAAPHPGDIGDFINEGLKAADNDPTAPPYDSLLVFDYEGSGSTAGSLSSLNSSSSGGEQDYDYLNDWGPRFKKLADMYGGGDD
Text: Within a representative neurite outgrowth assay, neurons may be cultured on a monolayer of cells (e.g., 3T3) that express N-cadherin. […] For example, neurons may be cultured on monolayers of 3T3 cells transfected with cDNA encoding N-cadherin essentially as described by Doherty and Walsh, Curr. Op. Neurobiol. 4:49-55, 1994; Williams et al., Neuron 13:583-594, 1994; Hall et al., Cell Adhesion and Commun. 3:441-450, 1996; Doherty and Walsh, Mol. Cell. Neurosci. 8:99-111, 1994; and Safell et al., Neuron 18:231-242, 1997. Briefly, monolayers of control 3T3 fibroblasts and 3T3 fibroblasts that express N-cadherin may be established by overnight culture of 80,000 cells in individual wells of an 8-chamber well tissue culture slide. 3000 cerebellar neurons isolated from post-natal day 3 mouse brains may be cultured for 18 hours on the various monolayers in control media (SATO/2%FCS), or media supplemented with various concentrations of the modulating agent or control peptide. The cultures may then be fixed and stained for GAP43 which specifically binds to the neurons and their neurites. The length of the longest neurite on each GAP43 positive neuron may be measured by computer assisted morphometry.
A modulating agent that modulates N-cadherin-mediated cell adhesion may inhibit or enhance such neurite outgrowth. Under the conditions described above, the presence of 500 μg/mL of a modulating agent that disrupts neural cell adhesion should result in a decrease in the mean neurite length by at least 50%, relative to the length in the absence of modulating agent or in the presence of a negative control peptide. Alternatively, the presence of 500 μg/mL of a modulating agent that enhances neural cell adhesion should result in an increase in the mean neurite length by at least 50%.
Neurons were cultured on monolayers of 3T3 cells transfected with cDNA encoding N-cadherin essentially as described by Doherty and Walsh, Curr. Op. Neurobiol. […] The length of the longest neurite on each GAP43 positive neuron was then measured by computer assisted morphometry.

MDA-MB231 = format: cell-based, human; settings: 3 h
OVCAR-3 = test: Disruption of human ovarian cancer cell (OVCAR-3) adhesion; format: cell-based; settings: for OVCAR3 cell morphology: 24 hours
Procedure: The human ovarian cancer cell line OVCAR-3, which expresses E-cadherin, was used in these experiments. Cells were cultured in RPMI supplemented with insulin and containing 20% FCS. Cells were grown in T-250 culture flasks and maintained by periodic subculturing. Cells were harvested from flasks and seeded in individual wells of 96-well culture dishes (surface area of each well was 0.32 cm^2) at a density of 50,000 cells per well in 0.1 ml media containing the cyclic peptides (at concentrations of 1, 0.1, or 0.01 mg/ml). Media control wells were also established. Cultures were evaluated periodically by microscopic examination under both bright field and phase contrast conditions, and were maintained for 48 hours.

Row | effect on neurite outgrowth on 3T3 cells expressing N-cadherin (N-cadherin; 500 μg/mL, 18 hours) | IC50 (MDA-MB231) | SMILES | effect on neurite outgrowth on 3T3 cells expressing N-cadherin (N-cadherin; 50 μg/mL, dose-response study) | OVCAR3 cell morphology (OVCAR-3; 100 μg/ml) | OVCAR3 cell morphology (OVCAR-3; 1 mg/ml) | effect on OVCAR-3 adhesion (OVCAR-3; 1, 0.1, or 0.01 mg/ml, up to 48 hours)
1 | had no effect | > 100 µM | CC(=O)N[C@H]1CSSC[C@@H](C(N)=O)NC(=O)[C@H](C(C)C)NC(=O)CNC(=O)[C@H](Cc2c[nH]cn2)NC1=O [N-Ac-CHGVC-NH2, reference compound] |  |  |  | 
2 | completely inhibited neurite outgrowth | > 100 µM | CC(=O)N[C@H]1CSSC[C@@H](C(N)=O)NC(=O)[C@H](C(C)C)NC(=O)[C@H](C)NC(=O)[C@H](Cc2c[nH]cn2)NC1=O [N-Ac-CHAVC-NH2, N-Ac-Cys-His-Ala-Val-Cys-NH2] | significantly inhibited neurite outgrowth |  |  | 
3 |  |  | CC(=O)N[C@H]1CSSC[C@@H](C(N)=O)NC(=O)[C@H](CO)NC(=O)[C@H](C(C)C)NC(=O)[C@H](C)NC(=O)[C@H](Cc2c[nH]cn2)NC1=O [N-Ac-CHAVSC-NH2, N-Ac-Cys-His-Ala-Val-Ser-Cys-NH2] (Ac-CHAVSC-NH2; disulfide 1-6) |  | retract form one another | round up | disrupted OVCAR-3 adhesion
